Experimental data published in patent publication US20050059615A1, “Transmucosal dosage forms for brain-targeted steroid chemical delivery systems” (priority 2003, published 2005).

What was measured:
ACTH = experiment: Suppression of stress-induced elevation of plasma ACTH (light restraint stress); type: in vivo, Sprague-Dawley rats
Procedure: (§1) Ability to suppress stress-induced ACTH and corticosterone is a measure of the anti-inflammatory action of a test substance.
(§2) Adult male Sprague-Dawley rats (Charles River Breeding Laboratories, Wilmington, Mass.) weighing 300-325 grams were selected for use in this study. The rats were housed individually in wire-bottomed cages in a climate-controlled room (23° C.) with a 12 hour light/12 hour dark cycle of artificial lighting. The animals were maintained on this light cycle for 10 days prior to the start of the experiment. Purina cat chow and tap water were provided ad libitum.
(§3) Rats then were subjected to either no stress or light restraint stress for 5 or 15 minutes on days 0, 1, 3, 5 or 7. Each experimental group consisted of six animals. For light restraint testing, the rats were placed in individual wire-mesh cages which permitted limited movement in a lateral or longitudinal direction. Nonstressed control rats were gently removed from their cages and immediately sacrificed. All animals were killed immediately at the end of the stress periods by decapitation. Trunk blood was rapidly collected in iced tubes containing EDTA, and the plasma was separated by cold centrifugation and stored at −80° C. until radioimmunoassay.
Plasma ACTH was measured in duplicate by radioimmunoassay using a double-antibody technique (Diagnostic Products Corp., Los Angeles, Calif.). The intra-assay coefficient of variation was 8.25%; and the limit of sensitivity for the assay was 17 pg/mL of plasma.
(§4) The significance of differences among mean values was determined by analysis of variance (Anova) and Student-Newman-Keuls tests. The level of probability for all tests was 0.05.

corticosterone = experiment: Suppression of stress-induced elevation of corticosterone (15-minute restraint stress); type: in vivo, Sprague-Dawley rats; settings: 15-minute stress
Procedure: as §1, §2, §3
Plasma corticosterone was measured in duplicate by radioimmunoassay using a double-antibody technique (Cambridge Medical Tech., Inc., Billerica, Mass.). The intra-assay coefficient of variation was <2.63% and the interassay coefficient of variation was 7.1%. The limit of sensitivity for the assay was 0.39 ng/mL of plasma.
as §4

[1] = system: ovariectomized female rats; experiment: Lordosis quotient, female rat sexual behavior after ovariectomy; type: in vivo, Sprague Dawley rats
Procedure: Adult female Sprague Dawley rats (220-250 g) from Charles River Hungary Ltd., Godollo, Hungary, were used. Animals were kept in community cages (4 animals/cage) in a climate-controlled room (23∀2EC, 50-60% humidity), with a 14 hour light, 10 hour dark cycle of artificial lighting, using reversed light/dark cycle. Food and water were available ad libitum.
After a minimum five-day acclimatization period, animals were ovariectomized under ether anesthesia, then were left to recover for 3 weeks before testing (reconvalescence). All animals were treated in accordance with the guidelines of the European Communities Council Directive (86/609/EEC) and studies were permitted by the Institutional Animal Care Commission.
Estradiol benzoate and progesterone were obtained from Sigma Chemical Co. Inc., Budapest, Hungary. 2-Hydroxypropyl-β-cyclodextrin was purchased from Cerestar Inc., Hammond, Ind., US. […] E2-CDS as a 3% complex with HPβCD (E2-CDS-CD) was dissolved in distilled water and diluted with 27% HPβCD solution. E2-CDS-CD was synthesized by Alchem Laboratories Corporation, Alachua, Fla., US, using the procedure of Example 2 above.
(§5) After recovery from surgery, ovariectomized female rats were divided into four groups and treated once a day for five days intravenously, via a bolus injection through the tail vein, as follows: (1) control, 27% HPβCD solution; (2) 0.003 mg/kg E2-CDS dissolved in 27% HPβCD solution; (3) 0.01 mg/kg E2-CDS dissolved in 27% HPβCD solution; and (4) 0.03 mg/kg E2-CDS dissolved in 27% HPβCD solution. A minimal number of ovariectomized (8 to 12) females were used per group. Intravenous treatments either with E2-CDS or HPβCD (controls) were carried out daily for 5 days beginning 2 days prior to the first day of behavior observations, in a volume of 0.05 mL/100 g body weight.
The behavior test was conducted in a plexiglass observation cage during the dark cycle. During behavioral observations, only a dim red light was on.
(§6) An experienced and active male rat was placed in the arena 5 minutes prior to the female. […] The lordosis quotient (LQ) expresses the estrogen effect on sexual receptivity and was calculated as follows: LQ=100×number of lordoses/10 mounts The observation of the sexual behavior of each female was carried out, in the case of E2-CDS, every day for 22 days; in the case of EB, investigations were carried out every day for 10 days. […] Citrated blood samples were taken by retro-orbital sinus puncture under light ether anesthesia. The samples were stored at 4EC for one hour, then centrifuged at 1000 g for 10 minutes. Plasma was separated and stored at −80EC until assayed. Plasma LH concentrations from individual samples were measured by double antibody radioimmunoassay kits obtained from Amersham Pharmacia Biotech, Rome, Italy. […] The limit of detection was 15 pg/mL.
(§7) Behavioral changes were analyzed using the Mann-Whitney U test (Siegel, Nonparametric Statistics for the Behavioral Sciences, New York; McGraw-Hill Book Company, Inc., 1956). The Fisher exact test was used for percentage comparisons (Zar, Biostatistical Analysis, Prentice Hall, Inc., Englewood Cliffs, N.J., 1974). Serum LH data were analyzed for each time and treatment group by analysis of variance (ANOVA) followed by Bonferroni posthoc test.

LH = experiment: Plasma LH in ovariectomized female rats (radioimmunoassay); type: in vivo, Sprague Dawley rats; settings: all dosage levels tested: 0.003, 0.01 and 0.03 mg/kg i.v. daily for 5 days
Procedure: as §5, §6, §7

[2] = 0.003 mg/kg i.v. once a day for 5 days
[3] = 0.01 mg/kg i.v. once a day for 5 days
[4] = 0.03 mg/kg i.v. once a day for 5 days

SMILES	effect on stress-related elevations in ACTH (ACTH; 5-minute stress, days 1 and 3, single i.v. DEX-CDS 10 mg/kg or DEX 7.65 mg/kg (equimolar))	day through which suppression of ACTH elevations continued (ACTH; 5-minute stress, single i.v. DEX-CDS 10 mg/kg) [days]	effect on stress-related rises in ACTH (ACTH; 15-minute stress, day 3, single i.v. DEX-CDS 10 mg/kg or DEX 7.65 mg/kg)	duration of suppression of elevations in ACTH (ACTH; 15-minute stress, single i.v. DEX-CDS 10 mg/kg)	suppression of corticosterone response to stress (corticosterone; day 3, single i.v. DEX-CDS 10 mg/kg or DEX 7.65 mg/kg) [%]	suppression of corticosterone response to stress (corticosterone; day 5, single i.v. DEX-CDS 10 mg/kg) [%]	suppression of corticosterone response to stress (corticosterone; day 7, single i.v. DEX-CDS 10 mg/kg) [%]	effect on lordosis quotient [1, 2]	period of the LQ effect [1, 2] [days]	statistical significance of LQ effect [1, 2]	effect on lordosis quotient LQ [1, 3]	period of the LQ effect [1, 3]	statistical significance of LQ effect [1, 3]	effect on lordosis quotient LQ [1, 4]	maximal value of lordosis quotient (LQ) [1, 4]	period over which the LQ effect lasted [1, 4]	effect on plasma LH levels (LH)
C[C@@H]1C[C@H]2[C@@H]3CCC4=CC(=O)C=C[C@]4(C)[C@@]3(F)[C@@H](O)C[C@]2(C)[C@@]1(O)C(=O)COC(=O)C1=CN(C)C=CC1 [DEX-CDS, 9-fluoro-11β,17-dihydroxy-16α-methyl-21-{[(1-methyl-1,4-dihydropyridin-3-yl)carbonyl]oxy}pregna-1,4-diene-3,20-dione]	blocked	5	blocked	at least 7 days	33	37	56	–	–	–	–	–	–	–	–	–	–
C[C@]12CC[C@@H]3c4ccc(OC(=O)c5ccccc5)cc4CC[C@H]3[C@@H]1CC[C@@H]2O [estradiol benzoate, reference compound]	–	–	–	–	–	–	–	slightly enhanced	3 to 7	not statistically significant	slightly increased	day 3 to day 10	not statistically significant	significantly enhanced	27.3	day 3 to day 8	none of the tested dosages of estradiol benzoate gave statistically significant LH suppression
